Entries after “also recorded” stand apart in the source; their conditions may differ. Like-named read-outs stand apart in the source and are kept apart here.
How the values were obtained:
SARS-CoV-2 (B.1) = test: microbe, parasite or virus in culture; assay type: cell-based
SARS-CoV-2 replicon = test: microbe, parasite or virus in culture; assay type: cell-based; conditions: HEK293T cells; for inhibition at 10 µM / IC50: Severe acute respiratory syndrome coronavirus 2, HEK-293T, 60 h; for antiviral activity relative to GS-441524 / inhibition of SARS-CoV-2 replicon replication: in words
MHV-A59 = test: In vivo efficacy in murine hepatitis virus (MHV-A59) infected BALB/c mice
From the text: • Mice: SPF-grade male BALB/c mice, 100, weighing 18-22 g. • Operation: The experimental mice were infected with MHV-A59 nasal drops and randomly divided into ten groups (n=10 each).
The mice were monitored daily for disease symptoms, including body weight, clinical symptoms, and death, for 14 days. Record the body weight changes of mice in each treatment group after virus infection (FIG. 4A) and survival curves (FIG. 4B). The fluorescence quantitative PCR method was used to determine the virus titer in mouse liver 72 hours after virus infection (FIG. 4C).

SARS-CoV-2 = test: In vivo efficacy against SARS-CoV-2 in hACE2 humanized mice
[1] = PK study in cynomolgus monkeys; assay type: in vivo
Description: Three male cynomolgus monkeys weighing 3-5 kg were used for the pharmacokinetic study. Compound AVT006 was administered intragastrically with the dose of 10 mg/kg on day 1. After administration, the blood samples for plasma were collected from a jugular vein from each monkey over 48 hours. The plasma samples (1 mL) were obtained at predose, and 0.083, 0.25, 0.5, 1, 2, 4, 8, 24 and 48 h postdose. After recovery for three days, compound AVT006 was administered intravenously with a dose of 5 mg/kg at day 5. The blood samples for plasma were collected from a jugular vein from each monkey over 48 hours. 1 mL plasma samples were obtained at predose, and 0.083, 0.25, 0.5, 1, 2, 4, 8, 24 and 48 h postdose. Samples were treated with anticoagulant EDTA-K2 and centrifuged under 2000 g for 10 min at 4° C. The supernatants (plasma) were collected and stored at −65° C. for future analysis. The drug concentration in each sample was tested by Watson LIMS 7.5 SP1 HPLC/MS. The pharmacokinetic parameters were calculated using WinNonlin 6.3 software.

SARS-CoV replicon = test: microbe, parasite or virus in culture; assay type: cell-based; conditions: for IC50 / inhibition at 10 µM: Severe acute respiratory syndrome coronavirus, HEK-293T, 60 h
[2] = as reported by NIH OpenData Portal; species not printed (context non-human primates); cited from earlier work
[3] = Severe acute respiratory syndrome coronavirus 2, Vero C1008, 48 h
[4] = male, cynomolgus monkey, plasma, IV 5 mg/kg, analyzed ATV006

Structure (SMILES)	IC50 (SARS-CoV-2 (B.1); [3]) [µM]	inhibition at 10 µM (SARS-CoV-2 replicon) [%]	IC50 (SARS-CoV-2 replicon) [µM]	antiviral activity relative to GS-441524 (SARS-CoV-2 replicon)	other results
CC(C)(C)C(=O)OC[C@H]1O[C@@](C#N)(c2ccc3c(N)ncnn23)[C@H](O)[C@@H]1O [ATV018, ((2R,3S,4R,5R)-5-(4-aminopyrrolo[2,1-f][1,2,4]triazin-7-yl)-5-cyano-3,4-dihydroxytetrahydrofuran-2-yl)methyl pivalate]	0.939	97.5	0.42		
N#C[C@@]1(c2ccc3c(N)ncnn23)O[C@H](COC(=O)C2CCCCC2)[C@@H](O)[C@H]1O [ATV014, ((2R,3S,4R,5R)-5-(4-aminopyrrolo[2,1-f][1,2,4]triazin-7-yl)-5-cyano-3,4-dihydroxytetrahydrofuran-2-yl)methyl cyclohexanecarboxylate]		98.2	0.26	lower IC50 values and higher antiviral activity	IC50 (SARS-CoV-2 (B.1)): 0.331 µM; inhibition of SARS-CoV-2 replicon replication (SARS-CoV-2 replicon): significant inhibitory effects
N#C[C@@]1(c2ccc3c(N)ncnn23)O[C@H](COC(=O)c2ccccc2)[C@@H](O)[C@H]1O [ATV013, ((2R,3S,4R,5R)-5-(4-aminopyrrolo[2,1-f][1,2,4]triazin-7-yl)-5-cyano-3,4-dihydroxytetrahydrofuran-2-yl)methyl benzoate]	2.26	97.7	0.5		
CC(C)C(=O)OC[C@H]1O[C@@](C#N)(c2ccc3c(N)ncnn23)[C@H](O)[C@@H]1O [ATV006, ((2R,3S,4R,5R)-5-(4-aminopyrrolo[2,1-f][1,2,4]triazin-7-yl)-5-cyano-3,4-dihydroxytetrahydrofuran-2-yl)methyl isobutyrate]	1.36	98.6	0.51	lower IC50 values and higher antiviral activity	day after infection on which mice began to die (MHV-A59; BALB/c mice, 2 mg/kg IG): 4 days; median death rate (MHV-A59; BALB/c mice, 2 mg/kg IG): 6 days; mortality rate (MHV-A59; BALB/c mice, 2 mg/kg IG, by day 10 after infection, vs control group p=0.0291): 100%; survival (MHV-A59; BALB/c mice, 2 mg/kg IG, in words, 2 mg/kg): positive effect in prolonging the survival time of animals; also recorded: increased the survival rate; death and weight loss of mice (MHV-A59; BALB/c mice, ATV006 IG at doses except 2 mg/kg (5-50 mg/kg), 14 days, in words): can avoid the death and weight loss of mice at low doses; antiviral activity in vivo compared with GS-441524 and RDV (MHV-A59; BALB/c mice, in words): better antiviral activity in vivo; replication of the virus in the liver (MHV-A59; BALB/c mice, virus titer in liver 72 hours after infection, in words): significantly inhibit the replication of the virus in the liver; antiviral effect (MHV-A59; mice, medium dose 5 mg/kg-50 mg/kg, in words): excellent antiviral effect in a dose-dependent manner; inhibition of SARS-CoV-2 replicon replication (SARS-CoV-2 replicon): significant inhibitory effects; amount of viral genome (N gene) in lung tissue (SARS-CoV-2): significantly lower than that in the control group; amount of viral subgenome (subgenomic N) in lung tissue (SARS-CoV-2): significantly lower than that in the control group; metabolism to GS-441524 ([1]; in words): quickly metabolized into the active metabolite GS-441524; AUC(0-inf) [1, 4]: 19.6 ± 5.43 ng·h/mL; AUC(0-t) [1, 4]: 19.4 ± 5.35 ng·h/mL; Cmax [1, 4]: 132 ± 37.4 ng/mL; Tmax [1, 4]: 5 min; half-life [1, 4]: 4.15 ± 0.446 min; activity relative to GS-441524 (SARS-CoV replicon): twice that of compound GS-441524; IC50 (SARS-CoV replicon): 0.57 µM; inhibition at 10 µM (SARS-CoV replicon): 99.2%
CCCC(=O)OC[C@H]1O[C@@](C#N)(c2ccc3c(N)ncnn23)[C@H](O)[C@@H]1O [ATV009, ((2R,3S,4R,5R)-5-(4-aminopyrrolo[2,1-f][1,2,4]triazin-7-yl)-5-cyano-3,4-dihydroxytetrahydrofuran-2-yl)methyl butyrate]	1.33	98.8	0.22	improved	
N#C[C@@]1(c2ccc3c(N)ncnn23)O[C@H](CO)[C@@H](O)[C@H]1O [GS-441524, reference compound]		99.8	0.95		IC50 (SARS-CoV-2 (B.1)): 2.28 µM; IC50 (SARS-CoV replicon): 1.1 µM; inhibition at 10 µM (SARS-CoV replicon): 99.8%; bioavailability [2]: 8.3%
CC(C)CC(=O)OC[C@H]1O[C@@](C#N)(c2ccc3c(N)ncnn23)[C@H](O)[C@@H]1O [ATV017, ((2R,3S,4R,5R)-5-(4-aminopyrrolo[2,1-f][1,2,4]triazin-7-yl)-5-cyano-3,4-dihydroxytetrahydrofuran-2-yl)methyl 3-methylbutanoate]	2.19	97.2	0.43		
CCC(CC)C(=O)OC[C@H]1O[C@@](C#N)(c2ccc3c(N)ncnn23)[C@H](O)[C@@H]1O [ATV011, ((2R,3S,4R,5R)-5-(4-aminopyrrolo[2,1-f][1,2,4]triazin-7-yl)-5-cyano-3,4-dihydroxytetrahydrofuran-2-yl)methyl 2-ethylbutanoate]	2.12	98.9	0.32	improved	
